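Protocol summary: plate cells (96-well), add compound at 5 concentrations, incubate 48 h, interpolate endpoints linearly. Here, GI50 denotes the concentration required for 50% inhibition of growth. At the TGI there is no net growth.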
Experiments:
Assay in all cases: DTP human tumour cell line panel, 48 h
[1] = test system: 786-0 renal
[2] = test system: A498 renal
[3] = test system: A549 NSCLC
[4] = test system: ACHN renal
[5] = test system: BT-549 breast
[6] = test system: CAKI-1 renal
[7] = test system: CCRF-CEM leukemia
[8] = test system: COLO 205 colon
[9] = test system: DU-145 prostate
[10] = test system: EKVX NSCLC
[11] = test system: HCC-2998 colon
[12] = test system: HCT-116 colon
[13] = test system: HCT-15 colon
[14] = test system: HL-60(TB) leukemia
[15] = test system: HOP-62 NSCLC
[16] = test system: HOP-92 NSCLC
[17] = test system: HS 578T breast
[18] = test system: HT29 colon
[19] = test system: IGROV1 ovarian
[20] = test system: K-562 leukemia
[21] = test system: KM12 colon
[22] = test system: LOX IMVI melanoma
[23] = test system: M14 melanoma
[24] = test system: MALME-3M melanoma
[25] = test system: MCF7 breast
[26] = test system: MDA-MB-231 breast
[27] = test system: MDA-MB-435
[28] = test system: MOLT-4 leukemia
[29] = test system: NCI-H226 lung
[30] = test system: NCI-H23 lung
[31] = test system: NCI-H460 lung
[32] = test system: NCI-H522 lung
[33] = test system: NCI/ADR-RES ovarian
[34] = test system: OVCAR-3 ovarian
[35] = test system: OVCAR-4 ovarian
[36] = test system: OVCAR-5 ovarian
[37] = test system: OVCAR-8 ovarian
[38] = test system: PC-3 prostate
[39] = test system: RPMI-8226 leukemia
[40] = test system: RXF 393 renal
[41] = test system: SF-268 CNS
[42] = test system: SF-295 CNS
[43] = test system: SF-539 CNS
[44] = test system: SK-MEL-2 melanoma
[45] = test system: SK-MEL-28 melanoma
[46] = test system: SK-MEL-5 melanoma
[47] = test system: SK-OV-3 ovarian
[48] = test system: SN12C renal
[49] = test system: SNB-19 CNS
[50] = test system: SNB-75 CNS
[51] = test system: SR leukemia
[52] = test system: SW-620 colon
[53] = test system: T-47D breast
[54] = test system: TK-10 renal
[55] = test system: U251 CNS
[56] = test system: UACC-257 melanoma
[57] = test system: UACC-62 melanoma
[58] = test system: UO-31 renal

`Cc1nnc(-c2ccc(C)c(-c3ccc(C(=O)NCc4ccc(Cl)cc4)cc3)c2)o1` gave a GI50 [1] of 18.7 µM, a TGI [1] greater than 25 µM and a GI50 [2] of 7.03 µM. It also gave a TGI [2] greater than 25 µM, a GI50 [3] of 11.5 µM and a TGI [3] greater than 25 µM. For the same compound, the GI50 [4] was 12.4 µM, the TGI [4] was greater than 25 µM and the GI50 [5] was 14.7 µM. It also gave a TGI [5] greater than 25 µM, a GI50 [6] of 11.8 µM and a TGI [6] greater than 25 µM. The GI50 [7] was 14.7 µM, the TGI [7] was greater than 25 µM and the GI50 [8] was 9.08 µM. For the same compound, the TGI [8] was greater than 23.7 µM, the GI50 [9] was 16.2 µM and the TGI [9] was greater than 25 µM. The GI50 [10] was 7.02 µM, the TGI [10] was greater than 25 µM and the GI50 [11] was 17.5 µM. It also gave a TGI [11] greater than 25 µM, a GI50 [12] of 12.6 µM and a TGI [12] greater than 25 µM. The GI50 [13] was 11.7 µM, the TGI [13] was greater than 25 µM and the GI50 [14] was 8.55 µM. For the same compound, the TGI [14] was 24.5 µM, the GI50 [15] was 14.7 µM and the TGI [15] was greater than 25 µM. The GI50 [16] was 3.26 µM, the TGI [16] was greater than 25 µM and the GI50 [17] was 10.7 µM. It also gave a TGI [17] greater than 25 µM, a GI50 [18] of 19.8 µM and a TGI [18] greater than 25 µM. For the same compound, the GI50 [19] was greater than 16.3 µM, the TGI [19] was greater than 25 µM and the GI50 [20] was 7.64 µM. The TGI [20] was greater than 25 µM, the GI50 [21] was 11 µM and the TGI [21] was greater than 25 µM. The GI50 [22] was greater than 25 µM, the TGI [22] was greater than 25 µM and the GI50 [23] was 15.7 µM. For the same compound, the TGI [23] was greater than 25 µM, the GI50 [24] was 6.15 µM and the TGI [24] was 24.9 µM. It also gave a GI50 [25] of 7.37 µM, a TGI [25] greater than 19 µM and a GI50 [26] of 10.4 µM. The TGI [26] was greater than 25 µM, the GI50 [27] was 7.15 µM and the TGI [27] was greater than 25 µM. It also gave a GI50 [28] of 9.73 µM, a TGI [28] greater than 25 µM and a GI50 [29] of 6.93 µM. It also gave a TGI [29] greater than 25 µM, a GI50 [30] of 11.3 µM and a TGI [30] greater than 25 µM. The GI50 [31] was 11.9 µM, the TGI [31] was greater than 25 µM and the GI50 [32] was 8.49 µM. For the same compound, the TGI [32] was greater than 25 µM, the GI50 [33] was 9.04 µM and the TGI [33] was greater than 25 µM. The GI50 [34] was 11.6 µM, the TGI [34] was greater than 25 µM and the GI50 [35] was 3.41 µM. The TGI [35] was 16.4 µM, the GI50 [36] was greater than 25 µM and the TGI [36] was greater than 25 µM. The GI50 [37] was greater than 25 µM, the TGI [37] was greater than 25 µM and the GI50 [38] was 8.82 µM. The TGI [38] was greater than 25 µM, the GI50 [39] was 10.2 µM and the TGI [39] was greater than 25 µM. The GI50 [40] was 6.28 µM, the TGI [40] was greater than 25 µM and the GI50 [41] was 12.9 µM. The TGI [41] was greater than 25 µM, the GI50 [42] was 7.16 µM and the TGI [42] was greater than 25 µM. The GI50 [43] was greater than 22.7 µM, the TGI [43] was greater than 25 µM and the GI50 [44] was 12.7 µM. It also gave a TGI [44] greater than 25 µM, a GI50 [45] of 14.3 µM and a TGI [45] greater than 25 µM. It also gave a GI50 [46] of 3.97 µM, a TGI [46] of 9.53 µM and a GI50 [47] of 9.53 µM. For the same compound, the TGI [47] was greater than 25 µM, the GI50 [48] was greater than 18 µM and the TGI [48] was greater than 25 µM. For the same compound, the GI50 [49] was greater than 22.6 µM, the TGI [49] was greater than 25 µM and the GI50 [50] was 7.88 µM. For the same compound, the TGI [50] was greater than 25 µM, the GI50 [51] was 11.9 µM and the TGI [51] was greater than 25 µM. The GI50 [52] was greater than 25 µM, the TGI [52] was greater than 25 µM and the GI50 [53] was 4.13 µM. For the same compound, the TGI [53] was greater than 19.2 µM, the GI50 [54] was greater than 15.7 µM and the TGI [54] was greater than 25 µM. It also gave a GI50 [55] greater than 25 µM, a TGI [55] greater than 25 µM and a GI50 [56] of 8.07 µM. It also gave a TGI [56] greater than 25 µM, a GI50 [57] of 8.21 µM and a TGI [57] greater than 25 µM. For the same compound, the GI50 [58] was 4.37 µM and the TGI [58] was greater than 25 µM.

Compound `CCOc1c(C#N)c2c(N)ncnc2n1C1OC(CO)C(O)C1O` (configuration not stated) has a GI50 [1] of 3.76 µM, a TGI [1] greater than 24.9 µM and a GI50 [2] of 4.23 µM. For the same compound, the TGI [2] was 49.2 µM, the GI50 [3] was 2.27 µM and the TGI [3] was greater than 100 µM. The GI50 [4] was 2.95 µM, the TGI [4] was greater than 100 µM and the GI50 [5] was 2.58 µM. It also gave a TGI [5] of 19 µM, a GI50 [6] of 3.13 µM and a TGI [6] of 55.9 µM. For the same compound, the GI50 [7] was 3.18 µM, the TGI [7] was 24 µM and the GI50 [8] was 2.17 µM. For the same compound, the TGI [8] was 10 µM, the GI50 [9] was 2.72 µM and the TGI [9] was 11.8 µM. For the same compound, the GI50 [10] was 4.74 µM, the TGI [10] was greater than 100 µM and the GI50 [11] was 3.92 µM. The TGI [11] was 28.2 µM, the GI50 [12] was 0.881 µM and the TGI [12] was 3.27 µM. The GI50 [13] was 2.15 µM, the TGI [13] was greater than 100 µM and the GI50 [14] was 1.94 µM. For the same compound, the TGI [14] was 6.94 µM, the GI50 [15] was 5.01 µM and the TGI [15] was 26.5 µM. The GI50 [16] was 2.82 µM, the TGI [16] was greater than 100 µM and the GI50 [17] was 2.12 µM. It also gave a TGI [17] of 14 µM, a GI50 [18] of 2.89 µM and a TGI [18] greater than 34.1 µM. For the same compound, the GI50 [19] was 0.761 µM, the TGI [19] was 2.54 µM and the GI50 [20] was 1.5 µM. For the same compound, the TGI [20] was 16.4 µM, the GI50 [21] was 3.11 µM and the TGI [21] was greater than 44.2 µM. For the same compound, the GI50 [22] was 2.98 µM, the TGI [22] was greater than 100 µM and the GI50 [23] was 1.92 µM. The TGI [23] was 5.57 µM, the GI50 [24] was 3.62 µM and the TGI [24] was 24.2 µM. For the same compound, the GI50 [25] was 2.45 µM, the TGI [25] was greater than 100 µM and the GI50 [26] was 6.15 µM. It also gave a TGI [26] greater than 82.9 µM, a GI50 [27] of 3.15 µM and a TGI [27] of 34.6 µM. The GI50 [28] was 2.95 µM, the TGI [28] was 15.1 µM and the GI50 [29] was 6.93 µM. For the same compound, the TGI [29] was greater than 91.8 µM, the GI50 [30] was 3.69 µM and the TGI [30] was 34.4 µM. It also gave a GI50 [31] of 2.48 µM, a TGI [31] greater than 100 µM and a GI50 [32] of 8.18 µM. The TGI [32] was 39.9 µM, the GI50 [33] was 4.51 µM and the TGI [33] was greater than 100 µM. It also gave a GI50 [34] of 2.53 µM, a TGI [34] of 7.09 µM and a GI50 [35] of 3.75 µM. It also gave a TGI [35] greater than 57.2 µM, a GI50 [36] of 7.02 µM and a TGI [36] greater than 100 µM. The GI50 [37] was 4.81 µM, the TGI [37] was greater than 100 µM and the GI50 [38] was 2.77 µM. It also gave a TGI [38] greater than 31.7 µM, a GI50 [39] of 2.12 µM and a TGI [39] of 9 µM. It also gave a GI50 [40] of 2.27 µM, a TGI [40] of 6.64 µM and a GI50 [41] of 3.37 µM. For the same compound, the TGI [41] was 65.4 µM, the GI50 [42] was 4.63 µM and the TGI [42] was greater than 100 µM. For the same compound, the GI50 [43] was 4.06 µM, the TGI [43] was 50 µM and the GI50 [44] was 8.61 µM. The TGI [44] was 28.3 µM, the GI50 [45] was 2.52 µM and the TGI [45] was 11.8 µM. It also gave a GI50 [46] of 3.79 µM, a TGI [46] of 16.6 µM and a GI50 [47] of 3.34 µM. It also gave a TGI [47] of 53.1 µM, a GI50 [48] of 3.14 µM and a TGI [48] greater than 100 µM. The GI50 [49] was 9.1 µM, the TGI [49] was greater than 100 µM and the GI50 [50] was 5.61 µM. It also gave a TGI [50] greater than 76 µM, a GI50 [51] of 1.3 µM and a TGI [51] of 5.5 µM. It also gave a GI50 [52] of 2.18 µM, a TGI [52] greater than 44.6 µM and a GI50 [53] of 1.98 µM. It also gave a TGI [53] of 20.2 µM, a GI50 [54] of 3.05 µM and a TGI [54] greater than 28 µM. It also gave a GI50 [55] of 3.21 µM, a TGI [55] greater than 100 µM and a GI50 [56] of 13.7 µM. It also gave a TGI [56] greater than 77.3 µM, a GI50 [57] of 2.76 µM and a TGI [57] of 10 µM. It also gave a GI50 [58] of 2.86 µM and a TGI [58] greater than 40.3 µM.

— PubChem BioAssay (NCI)
